This note sets out measurements from ChEMBL document CHEMBL3627610 (Eur J Med Chem, 2015).

The Emax is the size of the effect at its maximum, as opposed to the concentration needed. As a reminder, the EC50 is the concentration giving half of the maximal effect. What is called Ki is the equilibrium dissociation constant of an inhibitor or competing ligand from its target.

Assay [1] is filed under the species Xenopus laevis. The assay can be described thus: Agonist activity at melatonin receptor in Xenopus laevis melanophores assessed as effect on pigment aggregation at 10^-5 M after 60 mins by microtiter plate reader assay.
The species entered for assay [2] is Xenopus laevis. The assay can be described thus: Antagonist activity at melatonin receptor in Xenopus laevis melanophores assessed as effect on pigment aggregation at 10^-4 M after 60 mins by microtiter plate reader assay.
For assay [3], the species on record is Xenopus laevis. The assay can be described thus: Agonist activity at melatonin receptor in Xenopus laevis melanophores assessed as effect on pigment aggregation at 10^-12 to 10^-5 M after 60 mins by microtiter plate reader assay.
Assay [4] is described as follows: Agonist activity at melatonin receptor in Xenopus laevis melanophores assessed as effect on pigment aggregation after 60 mins by microtiter plate reader assay.
Assay [5] deals with T1, Melatonin receptor type 1B (Homo sapiens, UniProt P49286).
T1 sequence (P49286 whole entry): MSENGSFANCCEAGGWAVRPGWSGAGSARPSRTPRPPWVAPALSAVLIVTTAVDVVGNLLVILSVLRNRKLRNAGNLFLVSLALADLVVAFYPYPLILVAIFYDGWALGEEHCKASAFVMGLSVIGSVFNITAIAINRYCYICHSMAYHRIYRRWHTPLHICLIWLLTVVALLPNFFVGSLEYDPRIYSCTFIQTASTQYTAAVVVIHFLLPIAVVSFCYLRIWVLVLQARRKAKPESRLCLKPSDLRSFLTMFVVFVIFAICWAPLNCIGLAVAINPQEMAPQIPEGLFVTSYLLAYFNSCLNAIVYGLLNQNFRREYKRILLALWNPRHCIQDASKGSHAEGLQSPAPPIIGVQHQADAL
The assay can be described thus: Displacement of 2-[125I]iodomelatonin from human recombinant MT2 expressed in CHO cell membranes incubated for 120 mins by liquid scintillation spectrometry.

Assay [6] has as its target Melatonin receptor type 1A (Homo sapiens, UniProt P48039). The assay can be described thus: Displacement of 2-[125I]iodomelatonin from human recombinant MT1 expressed in CHO cell membranes incubated for 60 mins by liquid scintillation spectrometry.

Activity calls are given as the source filed them. The calls are words filed in the database; no cut-off is given here.

Chain of Melatonin receptor type 1A (P48039 whole entry): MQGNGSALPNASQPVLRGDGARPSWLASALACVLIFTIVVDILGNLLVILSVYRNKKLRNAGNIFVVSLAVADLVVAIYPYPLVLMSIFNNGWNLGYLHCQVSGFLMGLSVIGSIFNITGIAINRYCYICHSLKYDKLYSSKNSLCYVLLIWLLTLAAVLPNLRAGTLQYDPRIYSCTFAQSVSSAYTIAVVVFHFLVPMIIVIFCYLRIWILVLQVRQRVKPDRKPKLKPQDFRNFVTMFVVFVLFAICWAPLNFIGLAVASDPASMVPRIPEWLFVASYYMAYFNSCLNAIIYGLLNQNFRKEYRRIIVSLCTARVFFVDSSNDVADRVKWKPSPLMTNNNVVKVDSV

For `COc1ccc2c(CCCNC(C)=O)cc(=O)oc2c1`, the outcome in the assay listed under Xenopus laevis [1] was inactive. Further, the inhibition entry in the assay filed under Xenopus laevis [2] was “Active”.

Take `COc1ccc2[nH]cc(CCNC(C)=O)c2c1` [MELATONIN]: the Emax in the assay filed under Xenopus laevis [3] was 100%. In assay [4], the concentration for a half-maximal effect (EC50) is 0.074 nM.

On to `COc1ccc2oc(=O)cc(CCNC(C)=O)c2c1`, for which the Emax in the assay filed under Xenopus laevis [3] was 89%. In addition, the Ki in assay [5] came to 3.4 nM; in assay [6] it was 13 nM. In the assay listed under Xenopus laevis [2], the inhibition result is “Active”. In addition, the EC50 in assay [4] came to 118 nM.
